In patent US9532947B2, “Formulation for oral transmucosal administration of analgesic and/or antispasmodic molecules” (priority 2009, dated 2017):

How the values were obtained:
[1] = oral/digestive route, cited from earlier work; for fraction of the orally administered dose that is truly bioavailable (residual part reaching the smooth muscular membranes): coated pill or ODT form, on average at best
[2] = Complete dissolution of active principle in approximately 40° ethanol (dissolution coefficient); assay type: physicochemical
Description: The expression “stable and completely dissolved state” refers to a solution state rendering the active principle in the molecular and weakly ionized state in its solution medium, this solution state preventing any possibility of inopportune recrystallization. This stable and completely dissolved state may be monitored immediately on use of the formulation of the invention by evaluating the visual appearance of the solution obtained (measurement of the degree of limpidity), then at the level of the filtration residues (appearance or non-appearance of crystals), and finally in the medium-term and long-term during stability tracking tests at varying temperatures and relative humidities.
By way of illustration, the dissolution coefficient of phloroglucinol in ethanol makes it possible to obtain complete dissolution of said active principle at the rate of 20 milligrams (mg) of phloroglucinol in 0.75 mL of approximately 40° ethanol.
Similarly, the coefficient of dissolution of tiemonium methylsulfate in ethanol makes it possible to obtain complete dissolution of said active principle at the rate of 10 mg of tiemonium in 0.75 mL of approximately 40° ethanol. The coefficient of dissolution of nefopam in ethanol makes it possible to obtain complete dissolution of said active principle at the rate of 20 mg of nefopam in 1 mL of approximately 40° ethanol.

CN1CCOC(c2ccccc2)c2ccccc2C1 (stereo not drawn) [nefopam]
truly bioavailable dose of active principle resorbed by the digestive tract ([1]; all three main metabolites have no pharmacological activity): virtually nil
complete dissolution of active principle at the rate of [2]: 20 mg in 1 mL

Oc1cc(O)cc(O)c1 [phloroglucinol]
fraction of the orally administered dose that is truly bioavailable (residual part reaching the smooth muscular membranes) [1]: 40% to 50
complete dissolution of active principle at the rate of [2]: 20 mg in 0.75 mL

COS(=O)(=O)[O-].C[N+]1(CCC(O)(c2ccccc2)c2cccs2)CCOCC1 (stereo not drawn) [tiemonium, tiemonium methylsulfate]
fraction of the orally administered dose that is truly bioavailable (residual part reaching the smooth muscular membranes) [1]: 10% to 15
complete dissolution of active principle at the rate of [2]: 10 mg in 0.75 mL
